# Paper PMC6982876, “Synthesis of Novel Benzodifuranyl; 1,3,5-Triazines; 1,3,5-Oxadiazepines; and Thiazolopyrimidines Derived from Visnaginone and Khellinone as Anti-Inflammatory and Analgesic Agents” (Molecules, 2020)
# Marks after values point to notes of the source that are not given here.
# What was measured:
# [1] = system: acetic acid-induced writhing in mice; experiment: Acetic acid-induced writhing test (analgesic activity); assay type: in vivo; conditions: 10 mg/kg p.o., n = 5; for Writhing Number in 20 min (Mean ± SEM): acetic acid 1 h after dosing; for Analgesic Activity (% protection): writhing test
# Protocol: The analgesic activity of the compounds was performed using the writhing test as described by Gawade et al.. Mice weight ranged from 25 to 30 g. Then, mice were divided into 18 different groups, each containing five animals. The animals fasted for 8 h before the experiment. Administration of the compounds (10 mg/kg, p.o.) was performed orally. Equal doses of diclofenac as the reference drug and saline as a negative control were also administrated orally. Writhing was induced one hour after compound administration by using 0.1 mL of 1% glacial acetic acid at a volume of 0.1 mL/10 g body weight. The number of writhing responses (stretching of the abdomen, extension of hind limbs, twisting of the trunk, and elongation of the body) observed was counted for 20 min. The protection percentile against acetic acid-induced writhing was calculated according to the following formula: (1) Analgesic activity (%) =n−n′/n×100* where n is the mean number of writhes of the control group, and n’ is the mean number of writhes of the tested compound group.
# [2] = biological target: T1, human recombinant COX-2 (Homo sapiens, UniProt P35354); experiment: In vitro COX inhibitor screening assay (EIA kit, Cayman), COX-2; assay type: biochemical; conditions: for COX2 (SI) selectivity index: COX-1 IC50 / COX-2 IC50; for IC50: COX-2, mean of two determinations, enzyme kit, read-out: COX2 IC50
# T1 construct: purchased Cayman Chemical, Ann Arbor, MI, USA 560131
# T1 sequence (P35354 18-604): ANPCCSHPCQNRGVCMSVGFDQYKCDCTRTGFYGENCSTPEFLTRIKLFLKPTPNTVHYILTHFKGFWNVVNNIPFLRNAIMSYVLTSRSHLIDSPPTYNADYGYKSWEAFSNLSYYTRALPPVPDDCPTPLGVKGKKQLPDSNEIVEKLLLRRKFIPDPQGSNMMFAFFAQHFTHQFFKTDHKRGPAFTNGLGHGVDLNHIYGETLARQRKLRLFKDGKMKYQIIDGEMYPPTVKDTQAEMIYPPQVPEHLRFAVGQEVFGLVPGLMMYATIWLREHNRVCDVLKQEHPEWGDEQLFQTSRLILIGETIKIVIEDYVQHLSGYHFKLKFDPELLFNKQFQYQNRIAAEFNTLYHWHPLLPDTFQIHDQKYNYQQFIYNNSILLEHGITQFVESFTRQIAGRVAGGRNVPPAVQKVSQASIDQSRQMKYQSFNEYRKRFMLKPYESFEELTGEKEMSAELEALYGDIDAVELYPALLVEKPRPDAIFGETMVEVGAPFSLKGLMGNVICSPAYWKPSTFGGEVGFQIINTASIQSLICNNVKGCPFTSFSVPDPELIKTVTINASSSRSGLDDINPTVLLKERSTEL
# Protocol: (§1) Furthermore, the selectivity index for COX-2 (COX-1 IC50 / COX-2 IC50) was calculated for the compounds.
# [3] = system: carrageenan-induced paw edema in rats; experiment: Carrageenan-induced paw edema (anti-inflammatory activity); assay type: in vivo; conditions: 10 mg/kg oral; for % Change in Paw Height (Mean ± SEM): n = 5
# Protocol: Albino rats (150–180 g) were used. The rats were divided into 11 experimental groups of five rats each. One hour after oral administration of the compounds (10 mg/kg), 0.1 mL of 1% carrageenan solution was injected in the left hind paw of each animal. Rat paw volumes were measured with a digital caliber plethysmometer (UGO Basile, Varese, Italy) used to measure inflammation height at 0, 1, 2, and 3 h after carrageenan injection. The percentage increase in inflammation in the left hind paw, in comparison to the uninjected right hind paw, was determined, calculated, and expressed as the amount of inflammation. […] The anti-inflammatory activity of the selected analgesic compounds after 3 h was expressed as percentage inhibition of edema, which was calculated according to the following equation: (2) Inhibition of edema (%) =Vcont−Vtest/Vcont×100* where V cont is the edema volume in the control group, and V test is the edema volume in the group of the screened compound.
# [4] = system: interleukin-1 beta (IL-1 β); experiment: ELISA of serum interleukin-1 beta after paw edema test; assay type: in vivo, rats; conditions: rat serum at the end of the paw edema test, mean ± SEM, n = 5
# Protocol: IL1 is one of the important inflammatory mediators and is used to confirm the anti-inflammatory activities of new anti-inflammatory compounds. At the end of the paw edema test, blood samples were collected from the orbital axis of the eye under light ether anesthesia. Sera were separated after centrifugation of blood at 5000 rpm for 15 min; the sera were stored at –80 °C until the ELISA assay was performed according to the manufacturer instructions.
# [5] = biological target: T2, ovine COX-1 (Ovis aries, UniProt P05979); experiment: In vitro COX inhibitor screening assay (EIA kit, Cayman), COX-1; assay type: biochemical; conditions: mean of two determinations, enzyme kit, read-out: COX1 IC50
# T2 construct: purchased Cayman Chemical, Ann Arbor, MI, USA 560131
# T2 sequence (P05979 25-600): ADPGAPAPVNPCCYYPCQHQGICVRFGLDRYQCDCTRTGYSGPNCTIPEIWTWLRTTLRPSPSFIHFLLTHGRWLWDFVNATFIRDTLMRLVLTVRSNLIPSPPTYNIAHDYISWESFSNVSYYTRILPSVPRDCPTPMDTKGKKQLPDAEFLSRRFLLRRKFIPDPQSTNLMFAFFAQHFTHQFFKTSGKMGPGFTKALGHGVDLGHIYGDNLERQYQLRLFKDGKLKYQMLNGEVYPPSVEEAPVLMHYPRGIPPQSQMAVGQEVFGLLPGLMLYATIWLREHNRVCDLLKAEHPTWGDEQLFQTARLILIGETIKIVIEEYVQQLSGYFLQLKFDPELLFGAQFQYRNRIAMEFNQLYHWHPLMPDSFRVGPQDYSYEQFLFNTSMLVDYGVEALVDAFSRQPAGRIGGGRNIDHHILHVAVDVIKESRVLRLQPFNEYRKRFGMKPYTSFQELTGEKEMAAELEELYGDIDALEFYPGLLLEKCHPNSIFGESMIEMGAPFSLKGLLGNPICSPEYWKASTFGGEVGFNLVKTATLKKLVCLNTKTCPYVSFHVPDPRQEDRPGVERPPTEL
# Protocol: as §1
COX2 (SI) selectivity index [2],IC50 [2] [µM],melting point [°C],IC50 [5] [µM],SMILES,Writhing Number in 20 min (Mean ± SEM) [1],Analgesic Activity (% protection) [1],% Change in Paw Height (Mean ± SEM) ([3]; 1 hr after carrageenan),% Change in Paw Height (Mean ± SEM) ([3]; 2 hr after carrageenan),Anti-Inflammatory Activity (% Inhibition of Edema) ([3]; 3 hr after carrageenan) [%],% Change in Paw Height (Mean ± SEM) ([3]; 3 hr after carrageenan),IL-1 β Concentration [4]
98,0.043,> 350,4.23,"COc1c2ccoc2cc2oc(C(=Nc3cc(N4CCNCC4)nc(N4CCNCC4)n3)N3CCNCC3)c(C)c12 [Compound 10a, N-(2,6-di (piperazin-1-yl)pyrimidin-4-yl)-1-(4-methoxy-3-methylbenzo [1,2-b: 5,4-b`]difuran-2-yl)-1-(piperazin-1-yl) methanimine]",25 ± 1.3 ^a,50 ± 1.6 ^a %,0.19 ± 0.01 ^a %,0.14 ± 0.02 ^a %,67,0.16 ± 0.02 ^a %,31 ± 0.55 ^b Pg /mL
83,0.08,> 350,6.6,"COc1c2occc2c(OC)c2c(C)c(C3=NC4=CC(=O)N5C(=O)CSC5N4C=N3)oc12 (stereo not shown) [Compound 11b, 8-(4,8-dimethoxy-3-methylbenzo[1,2-b:5,4-b`]difuran-2-yl)-2-hydro-5H,11aH-thiazolo [2’, 3’:2,3]pyrimido[1,6-a][1,3,5]triazine-3,5-dione]",37 ± 2.3 ^a,38 ± 0.80 ^a %,0.29 ± 0.01 ^a %,0.23 ± 0.01 ^a %,56,0.27 ± 0.02 ^a %,42 ± 0.98 ^b Pg /mL
95,0.055,> 350,5.2,"COc1c2ccoc2cc2oc(C3=NC4=CC(=O)N5C(=O)C(=Cc6ccc(Cl)cc6)SC5N4C(=O)C(=Cc4ccc(Cl)cc4)O3)c(C)c12 (stereo not shown) [Compound 13b, 2,10-bis(4-chlorobenzylidene)-8-(4-methoxy-3-methylbenzo[1,2-b:5,4-b`]difuran-2-yl)-5H, 12aH-thiazolo[2’,3’:2,3]pyrimido[6,1-d][1,3,5]oxadiazepine-3,5,11(2H,10H)-trione]",29 ± 1.5 ^a,46 ± 1.6 ^a %,0.23 ± 0.02 ^a %,0.18 ± 0.01 ^a %,63,0.20 ± 0.02 ^a %,35 ± 0.28 ^b Pg /mL
87,0.07,> 350,6.1,"COc1c2occc2c(OC)c2c(C)c(C3=NC4=CC(=O)N5C(=O)CSC5N4C(=O)CO3)oc12 (stereo not shown) [Compound 12b, 8-(4,8-dimethoxy-3-methylbenzo[1,2-b:5,4-b`]difuran-2-yl)-5H,12aH-thiazolo[2’,3’:2,3] pyrimido[6,1-d][1,3,5]oxadiazepine-3,5,11(2H,10H)-trione]",34 ± 1.7 ^a,41 ± 1.10 ^a %,0.28 ± 0.01 ^a %,0.22 ± 0.02 ^a %,58,0.25 ± 0.02 ^a %,40 ± 0.22 ^b Pg /mL
,,,4.15,"COc1c2occc2c(OC)c2c(C)c(C(=Nc3cc(N4CCNCC4)nc(N4CCNCC4)n3)N3CCNCC3)oc12 [Compound 10c, N-(2,6-di (piperazin-1-yl)pyrimidin-4-yl)-1-(4,8-dimethoxy-3-methylbenzo [1,2-b: 5,4-b`]difuran-2-yl)-1-(piperazin-1-yl) methanimine]",24 ± 1.5 ^a,51 ± 1.4 ^a %,0.18 ± 0.01 ^a %,0.13 ± 0.02 ^a %,68,0.15 ± 0.02 ^a %,30 ± 0.70 ^b Pg /mL
61,0.28,337 to 339,17,"COc1c2ccoc2cc2oc(C(Cl)=Nc3cc(Cl)nc(=S)[nH]3)c(C)c12 [Compound 8a, N-(6-chloro-2-thioxo-2,3-dihydropyrimidin-4-yl)-4-methoxy-3-methylbenzo [1,2-b: 5,4-b`] difuran-2-carbimidoyl chloride]","48 ± 1.9 ^a,b",27 ± 0.60%,0.37 ± 0.02 ^a %,0.30 ± 0.03 ^a %,40,0.37 ± 0.02 ^a %,
79,0.101,308 to 310,7.95,"COc1c2ccoc2cc2oc(C(=O)Nc3cc(=O)n4c(n3)SCC4=O)c(C)c12 [Compound 7a, N-(3,5-dioxo-2,3-dihydro-5H-thiazolo [3,2-a]pyrimidin-7-yl)-4-methoxy-3-methylbenzo [1,2-b: 5,4-b`] difuran-2-carboxamide]","42 ± 1.8 ^a,b",33 ± 1.70%,0.31 ± 0.01 ^a %,0.26 ± 0.02 ^a %,50,0.30 ± 0.02 ^a %,
45,0.411,186 to 188,18.5,"COc1c(C(C)=O)c(OCC(=O)Nc2cc(=O)[nH]c(=S)[nH]2)c(OC)c2occc12 [Compound 4b, 2-((5-acetyl-4,7-dimethoxybenzofuran-6-yl)oxy)-N-(6-oxo-2-thioxo-1,2,3,6-tetrahydropyrimidin-4-yl) acetamide]","56 ± 1.2 ^a,b",19 ± 1.30%,0.47 ± 0.04 ^a %,0.38 ± 0.03 ^a %,26,0.47 ± 0.01 ^a %,
